Data taken from patent US20150307938A1, “METHOD TO IDENTIFY A NOVEL CLASS OF IMMUNOLOGIC ADJUVANTS” (Lancell, L.L.C., priority 2011, published 2015).

Columns and labels:
skin = assay: Affymetrix microarray of skin, DBP-4 hr and analogs vs. untreated; gene selection by log-2 fold change, Wilcoxon, Kendall tau (Tables 8, 9); format: in vivo, mouse
Fluzone = system: Fluzone; parameters: species or system C57BL/6 mice; details: mouse, in vivo
skin dendritic cells = assay: Flow cytometric analysis of Ahr−/− response to topical DBP; details: topical application

SMILES: COC(=O)c1ccccc1C(=O)OC [DMP, dimethylphthalate]
- Log2 Expression Level (skin; gene #1 of Table 8): 5.82
- Log2 Expression Level (skin; gene #2 of Table 8): 6.47
- Log2 Expression Level (skin; gene #3 of Table 8): 8.83
- Log2 Expression Level (skin; gene #4 of Table 8): 8.83
- Log2 Expression Level (skin; gene #5 of Table 8): 6.08
- Log2 Expression Level (skin; gene #6 of Table 8): 6.09
- Log2 Expression Level (skin; gene #7 of Table 8): 5.32
- Log2 Expression Level (skin; gene #8 of Table 8): 6.09
- Log2 Expression Level (skin; gene #9 of Table 8): 6.09
- Log2 Expression Level (skin; gene #10 of Table 8): 6.09
- Log2 Expression Level (skin; gene #11 of Table 8): 5.32
- Log2 Expression Level (skin; gene #12 of Table 8): 5.32
- Log2 Expression Level (skin; gene #13 of Table 8): 5.32
- Log2 Expression Level (skin; gene #14 of Table 8): 4.91
- Log2 Expression Level (skin; gene #15 of Table 8): 4.91
- Log2 Expression Level (skin; gene #16 of Table 8): 6.50
- Log2 Expression Level (skin; gene #17 of Table 8): 8.80
- Log2 Expression Level (skin; gene #18 of Table 8): 8.80
- Log2 Expression Level (skin; gene #19 of Table 8): 8.29
- Log2 Expression Level (skin; gene #20 of Table 8): 8.26
- Log2 Expression Level (skin; gene #21 of Table 8): 7.91
- Log2 Expression Level (skin; gene #22 of Table 8): 5.99
- Log2 Expression Level (skin; gene #23 of Table 8): 5.65
- Log2 Expression Level (skin; gene #24 of Table 8): 7.33
- Log2 Expression Level (skin; gene #25 of Table 8): 7.33
- Log2 Expression Level (skin; gene #26 of Table 8): 7.55
- Log2 Expression Level (skin; gene #27 of Table 8): 7.55
- Log2 Expression Level (skin; gene #28 of Table 8): 7.55
- Log2 Expression Level (skin; gene #29 of Table 8): 5.77
- Log2 Expression Level (skin; gene #30 of Table 8): 8.30
- Log2 Expression Level (skin; gene #31 of Table 8): 8.30
- Log2 Expression Level (skin; gene #32 of Table 8): 8.30
- Log2 Expression Level (skin; gene #33 of Table 8): 5.48
- Log2 Expression Level (skin; gene #34 of Table 8): 6.50
- Log2 Expression Level (skin; gene #35 of Table 8): 6.50
- Log2 Expression Level (skin; gene #36 of Table 8): 8.83
- Log2 Expression Level (skin; gene #37 of Table 8): 8.83
- Log2 Expression Level (skin; gene #38 of Table 8): 8.83
- Log2 Expression Level (skin; gene #39 of Table 8): 7.03
- Log2 Expression Level (skin; gene #40 of Table 8): 7.09
- Log2 Expression Level (skin; gene #41 of Table 8): 7.32
- Log2 Expression Level (skin; gene #42 of Table 8): 6.91
- Log2 Expression Level (skin; gene #43 of Table 8): 6.91
- Log2 Expression Level (skin; gene #44 of Table 8): 7.32
- Log2 Expression Level (skin; gene #45 of Table 8): 6.91
- Log2 Expression Level (skin; gene #46 of Table 8): 7.32
- Log2 Expression Level (skin; gene #47 of Table 8): 8.08
- Log2 Expression Level (skin; gene #48 of Table 8): 8.08
- Log2 Expression Level (skin; gene #49 of Table 8): 8.08
- Log2 Expression Level (skin; gene #50 of Table 8): 9.13
- Log2 Expression Level (skin; gene #51 of Table 8): 7.49
- Log2 Expression Level (skin; gene #52 of Table 8): 9.61
- Log2 Expression Level (skin; gene #53 of Table 8): 8.18
- Log2 Expression Level (skin; gene #54 of Table 8): 9.63
- Log2 Expression Level (skin; gene #55 of Table 8): 6.47
- Log2 Expression Level (skin; gene #56 of Table 8): 9.09
- Log2 Expression Level (skin; gene #57 of Table 8): 8.30
- Log2 Expression Level (skin; gene #58 of Table 8): 8.81
- Log2 Expression Level (skin; gene #59 of Table 8): 8.07
- Log2 Expression Level (skin; gene #60 of Table 8): 6.96
- Log2 Expression Level (skin; gene #61 of Table 8): 11.13
- Log2 Expression Level (skin; gene #62 of Table 8): 7.95
- Log2 Expression Level (skin; gene #63 of Table 8): 10.28
- Log2 Expression Level (skin; gene #64 of Table 8): 10.44
- Log2 Expression Level (skin; gene #65 of Table 8): 6.81
- Log2 Expression Level (skin; gene #66 of Table 8): 8.09
- Log2 Expression Level (skin; gene #67 of Table 8): 4.20
- Log2 Expression Level (skin; gene #68 of Table 8): 7.36
- Log2 Expression Level (skin; gene #69 of Table 8): 5.28
- Log2 Expression Level (skin; gene #70 of Table 8): 3.86
- Log2 Expression Level (skin; gene #71 of Table 8): 7.42
- Log2 Expression Level (skin; gene #72 of Table 8): 7.77
- Log2 Expression Level (skin; gene #73 of Table 8): 5.38
- Log2 Expression Level (skin; gene #74 of Table 8): 7.07
- Log2 Expression Level (skin; gene #75 of Table 8): 8.29
- Log2 Expression Level (skin; gene #76 of Table 8): 4.15
- Log2 Expression Level (skin; gene #77 of Table 8): 8.59
- Log2 Expression Level (skin; gene #78 of Table 8): 9.90
- Log2 Expression Level (skin; gene #79 of Table 8): 7.10
- Log2 Expression Level (skin; gene #80 of Table 8): 12.64
- Log2 Expression Level (skin; gene #81 of Table 8): 5.57
- Log2 Expression Level (skin; gene #82 of Table 8): 4.77
- Log2 Expression Level (skin; gene #83 of Table 8): 6.70
- Log2 Expression Level (skin; gene #84 of Table 8): 6.49
- Log2 Expression Level (skin; gene #85 of Table 8): 4.59
- Log2 Expression Level (skin; gene #86 of Table 8): 6.27
- Log2 Expression Level (skin; gene #87 of Table 8): 8.57
- Log2 Expression Level (skin; gene #88 of Table 8): 5.28
- Log2 Expression Level (skin; gene #89 of Table 8): 5.43
- Log2 Expression Level (skin; gene #90 of Table 8): 9.55
- Log2 Expression Level (skin; gene #91 of Table 8): 6.99
- Log2 Expression Level (skin; gene #92 of Table 8): 6.96
- Log2 Expression Level (skin; gene #93 of Table 8): 8.40
- Log2 Expression Level (skin; gene #94 of Table 8): 7.22
- Log2 Expression Level (skin; gene #95 of Table 8): 5.77
- Log2 Expression Level (skin; gene #96 of Table 8): 7.21
- Log2 Expression Level (skin; gene #97 of Table 8): 5.27
- Log2 Expression Level (skin; gene #98 of Table 8): 4.12
- Log2 Expression Level (skin; gene #99 of Table 8): 8.88
- Log2 Expression Level (skin; gene #100 of Table 8): 6.73

SMILES: CC12CCC(CC1=O)C2(C)C (stereo not drawn) [camphor]
- HAI titer / adjuvant effect with the same dose of Fluzone (Fluzone): improved

SMILES: O=[N+]([O-])c1ccc(F)c([N+](=O)[O-])c1 [dinitrofluorobenzene, reference compound]
- skin dendritic cell response in AhR−/− mice (skin dendritic cells): severely impaired
